Assay results reported in patent US10336762B2 (priority 2017, dated 2019).
Like-named read-outs stand apart in the source and are kept apart here.

How the values were obtained:
IRAK4 enzyme = IRAK4 enzyme (Homo sapiens (Human), UniProt Q9NWZ3); assay: biochemical; assay type: biochemical; settings: IRAK4 enzyme, 500 μM ATP
TNFα = assay: cells; assay type: cell-based, human; settings: Homo sapiens, Monocyte, LPS-stimulated human monocytes, read-out: EC50 TNF

IRAK4 enzyme, sequence (Q9NWZ3 whole entry): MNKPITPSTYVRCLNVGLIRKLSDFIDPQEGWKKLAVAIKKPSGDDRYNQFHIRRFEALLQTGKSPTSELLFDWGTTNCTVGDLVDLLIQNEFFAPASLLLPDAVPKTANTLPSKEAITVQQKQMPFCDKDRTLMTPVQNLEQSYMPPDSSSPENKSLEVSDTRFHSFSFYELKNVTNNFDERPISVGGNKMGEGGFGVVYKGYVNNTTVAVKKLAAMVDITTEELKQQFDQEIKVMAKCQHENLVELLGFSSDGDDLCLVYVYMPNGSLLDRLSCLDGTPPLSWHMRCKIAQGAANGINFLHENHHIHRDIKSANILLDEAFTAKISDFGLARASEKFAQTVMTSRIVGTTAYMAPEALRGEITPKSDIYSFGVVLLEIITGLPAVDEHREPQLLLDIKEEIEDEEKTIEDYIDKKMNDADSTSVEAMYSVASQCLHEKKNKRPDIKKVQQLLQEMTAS

CN1CC2C[C@@H](Nc3cc(-c4ccc5cc(C#N)cnn45)ncc3C(=O)NC[C@@H](F)C(C)(C)O)C[C@@H]2C1 (stereo partly drawn) [Example 245, 6-(3-cyanopyrrolo[1,2-b]pyridazin-7-yl)-N-((R)-2-fluoro-3-hydroxy-3-methylbutyl)-4-(((3aR,5s,6aS)-2-methyloctahydrocyclopenta[c]pyrrol-5-yl)amino)nicotinamide]
IC50 (IRAK4 enzyme; TR-FRET): 2 nM | EC50 (TNFα; TNFα content): 92 nM

CNC(=O)c1cnc(-c2ccc3cc(C#N)cnn23)cc1N[C@@H]1CC[C@H](C(=O)NC)C1 [Example 469, 6-(3-cyanopyrrolo[1,2-b]pyridazin-7-yl)-N-methyl-4-(((1R,3S)-3-(methylcarbamoyl)cyclo-pentyl)amino)nicotinamide]
IC50 (IRAK4 enzyme; TR-FRET (HTRF)): 41 nM | EC50 (TNFα; TNFα content): 1100 nM

CCOC(=O)NC[C@H]1C[C@H](Nc2cc(-c3ccc4cc(C#N)cnn34)ncc2C(=O)NC[C@@H](F)C(C)(C)O)C1 [Example 540, ethyl (((1R,3r)-3-((2-(3-cyanopyrrolo[1,2-b]pyridazin-7-yl)-5-(((R)-2-fluoro-3-hydroxy-3-methylbutyl)carbamoyl)pyridin-4-yl)amino)cyclo-butyl)methyl)carbamate]
IC50 (IRAK4 enzyme; TR-FRET (HTRF)): < 1 nM | EC50 (TNFα; TNFα content): 12 nM

COC(=O)N[C@H]1C[C@@H](Nc2cc(-c3ccc4cc(C#N)cnn34)ncc2C(=O)NC[C@@H](F)C(C)(C)O)C1 [Example 457, methyl ((1S,3s)-3-((2-(3-cyanopyrrolo[1,2-b]pyridazin-7-yl)-5-(((R)-2-fluoro-3-hydroxy-3-methylbutyl)carbamoyl)pyridin-4-yl)amino)cyclo-butyl)carbamate]
IC50 (IRAK4 enzyme; TR-FRET (HTRF)): 3 nM | EC50 (TNFα; TNFα content): 370 nM

CC(C)(O)[C@H](F)CNC(=O)c1cnc(-c2ccc3cc(C#N)cnn23)cc1N[C@H]1CC[C@H](O)C1 [Example 522, 6-(3-cyanopyrrolo[1,2-b]pyridazin-7-yl)-N-((R)-2-fluoro-3-hydroxy-3-methylbutyl)-4-(((1S,3S)-3-hydroxycyclopentyl)amino) nicotinamide]
IC50 (IRAK4 enzyme; TR-FRET (HTRF)): < 1 nM | EC50 (TNFα; TNFα content): 23 nM

CC(C)Nc1cc(-c2ccc3cc(C#N)cnn23)ncc1C(=O)NCC(O)C(C)(C)O (stereo not shown) [Example 330, 6-(3-cyanopyrrolo[1,2-b]pyridazin-7-yl)-N-(2,3-dihydroxy-3-methyl-butyl)-4-(isopropylamino) nicotinamide]
IC50 (IRAK4 enzyme; TR-FRET): 6 nM | EC50 (TNFα; TNFα content): 171 nM

COc1nccc(Nc2cc(-c3ccc4cc(C#N)cnn34)ncc2C(=O)NC[C@@H](F)C(C)(C)O)n1 [Example 844, (R)-6-(3-cyanopyrrolo[1,2-b]pyridazin-7-yl)-N-(2-fluoro-3-hydroxy-3-methylbutyl)-4-((2-methoxypyrimidin-4-yl)amino)nicotinamide]
IC50 (IRAK4 enzyme; TR-FRET): 1 nM | EC50 (TNFα; TNFα by TR-FRET): 70 nM

CCC(=O)NCc1ccc(Nc2cc(-c3ccc4cc(C#N)cnn34)ncc2C(=O)NC[C@@H](F)C(C)(C)O)cc1 [Example 204, (R)-6-(3-cyanopyrrolo[1,2-b]pyridazin-7-yl)-N-(2-fluoro-3-hydroxy-3-methylbutyl)-4-((4-(propionamido-methyl)phenyl)amino)nicotinamide]
IC50 (IRAK4 enzyme; TR-FRET): < 1 nM | EC50 (TNFα; TNFα content): 27 nM

COCc1ccc(Nc2cc(-c3ccc4cc(C#N)cnn34)ncc2C(=O)NC[C@@H](F)C(C)(C)O)cc1 [Example 648, (R)-6-(3-cyanopyrrolo[1,2-b]pyridazin-7-yl)-N-(2-fluoro-3-hydroxy-3-methylbutyl)-4-((4-(methoxymethyl)phenyl)amino)nicotinamide]
IC50 (IRAK4 enzyme; TR-FRET (HTRF)): 1 nM | EC50 (TNFα; TNFα content): 51 nM

CC(C)(O)[C@H](F)CNC(=O)c1cnc(-c2ccc3cc(C#N)cnn23)cc1N[C@H]1CCC(=O)NC1 [Example 368, 6-(3-cyanopyrrolo[1,2-b]pyridazin-7-yl)-N-((R)-2-fluoro-3-hydroxy-3-methylbutyl)-4-(((S)-6-oxopiperidin-3-yl)amino)nicotinamide]
IC50 (IRAK4 enzyme; TR-FRET): 5 nM | EC50 (TNFα; TNFα content): 2890 nM

CC(C)(O)[C@H](F)CNC(=O)c1cnc(-c2ccc3cc(C#N)cnn23)cc1Nc1ccc(-n2ncnn2)cc1 [Example 176, (R)-4-((4-(2H-tetrazol-2-yl)phenyl)amino)-6-(3-cyanopyrrolo[1,2-b]pyridazin-7-yl)-N-(2-fluoro-3-hydroxy-3-methylbutyl)nicotinamide]
IC50 (IRAK4 enzyme; TR-FRET): 1 nM | EC50 (TNFα; TNFα content): > 10000 nM

CNC(=O)c1ccc(Nc2cc(-c3ccc4cc(C#N)cnn34)ncc2C(=O)NCC#N)cc1 [Example 451, N-(cyanomethyl)-6-(3-cyanopyrrolo[1,2-b]pyridazin-7-yl)-4-((4-(methylcarbamoyl)phenyl)amino) nicotinamide]
IC50 (IRAK4 enzyme; TR-FRET (HTRF)): < 1 nM | EC50 (TNFα; TNFα content): 30 nM

CC(C)(C)C(=O)NC[C@H]1C[C@H](Nc2cc(-c3ccc4cc(C#N)cnn34)ncc2C(=O)NC[C@@H](F)C(C)(C)O)C1 [Example 824, 6-(3-cyanopyrrolo[1,2-b]pyridazin-7-yl)-N-((R)-2-fluoro-3-hydroxy-3-methylbutyl)-4-(((1r,3R)-3-(pivalamidomethyl)cyclo-butyl)amino)nicotinamide]
IC50 (IRAK4 enzyme; TR-FRET): < 1 nM | EC50 (TNFα; TNFα by TR-FRET): 39 nM

CC(C)Nc1cc(-c2ccc3cc(C#N)cnn23)ncc1C(=O)NS(C)(=O)=O [Example 34, 6-(3-cyanopyrrolo[1,2-b]pyridazin-7-yl)-4-(isopropylamino)-N-(methylsulfonyl) nicotinamide]
IC50 (IRAK4 enzyme; TR-FRET): 9380 nM | EC50 (TNFα; TNFα content): > 10000 nM

CC(C)Nc1cc(-c2ccc3cc(C#N)cnn23)ncc1C(=O)N[C@H]1CCOC[C@@H]1F [Example 322, 6-(3-cyanopyrrolo[1,2-b]pyridazin-7-yl)-N-((3R,4S)-3-fluorotetrahydro-2H-pyran-4-yl)-4-(isopropylamino) nicotinamide]
IC50 (IRAK4 enzyme; TR-FRET): 5 nM | EC50 (TNFα; TNFα content): 169 nM

CNC(=O)c1cnc(-c2ccc3cc(C#N)cnn23)cc1NC12CCC(C(=O)NC)(CC1)CC2 [Example 485, 6-(3-cyanopyrrolo[1,2-b]pyridazin-7-yl)-N-methyl-4-((4-(methyl-carbamoyl)bicyclo[2.2.2]octan-1-yl)amino) nicotinamide]
IC50 (IRAK4 enzyme; TR-FRET (HTRF)): 1 nM | EC50 (TNFα; TNFα content): 39 nM

CC(C)(O)[C@H](F)CNC(=O)c1cnc(-c2ccc3cc(C#N)cnn23)cc1Nc1ccc(-n2cccn2)cc1 [Example 769, (R)-4-((4-(1H-pyrazol-1-yl)phenyl)amino)-6-(3-cyanopyrrolo[1,2-b]pyridazin-7-yl)-N-(2-fluoro-3-hydroxy-3-methylbutyl)nicotinamide]
IC50 (IRAK4 enzyme; TR-FRET (HTRF)): < 1 nM | EC50 (TNFα; TNFα content): 44 nM

CCn1cc(Nc2cc(-c3ccc4cc(C#N)cnn34)ncc2C(=O)NC[C@@H](F)C(C)(C)O)cn1 [Example 56, (R)-6-(3-cyanopyrrolo[1,2-b]pyridazin-7-yl)-4-((1-ethyl-1H-pyrazol-4-yl)amino)-N-(2-fluoro-3-hydroxy-3-methylbutyl)nicotinamide]
IC50 (IRAK4 enzyme; TR-FRET): < 1 nM | EC50 (TNFα; TNFα content): 13 nM

CC(C)(O)[C@H](F)CNC(=O)c1cnc(-c2ccc3cc(C#N)cnn23)cc1Nc1cnc(Cl)cn1 [Example 970, (R)-4-((5-chloropyrazin-2-yl)amino)-6-(3-cyano-pyrrolo[1,2-b]pyridazin-7-yl)-N-(2-fluoro-3-hydroxy-3-methylbutyl)nicotinamide]
IC50 (IRAK4 enzyme; TR-FRET): < 1 nM | EC50 (TNFα; TNFα by TR-FRET): 57 nM

COC1CN(C(=O)C23CCC(Nc4cc(-c5ccc6cc(C#N)cnn56)ncc4C(=O)NC[C@@H](F)C(C)(C)O)(CC2)CC3)C1 [Example 396, (R)-6-(3-cyanopyrrolo[1,2-b]pyridazin-7-yl)-N-(2-fluoro-3-hydroxy-3-methylbutyl)-4-((4-(3-methoxyazetidine-1-carbonyl)bicyclo[2.2.2]octan-1-yl)amino) nicotinamide]
IC50 (IRAK4 enzyme; TR-FRET): 1 nM | EC50 (TNFα; TNFα content): 24 nM

CC(C)(O)[C@H](F)CNC(=O)c1cnc(-c2ccc3cc(C#N)cnn23)cc1NC1CC(CNC(=O)C2CCC2)C1 (stereo partly drawn) [Example 927, 6-(3-cyanopyrrolo[1,2-b]pyridazin-7-yl)-4-(((1r,3R)-3-(cyclobutanecarboxamido-methyl)cyclobutyl)amino)-N-((R)-2-fluoro-3-hydroxy-3-methylbutyl)nicotinamide]
IC50 (IRAK4 enzyme; TR-FRET): < 1 nM | EC50 (TNFα; TNFα by TR-FRET): 22 nM

COC(=O)c1ccc(Nc2cc(-c3ccc4cc(C#N)cnn34)ncc2C(=O)NC[C@@H](F)C(C)(C)O)cc1OC [Example 564, (R)-methyl 4-((2-(3-cyano-pyrrolo[1,2-b]pyridazin-7-yl)-5-((2-fluoro-3-hydroxy-3-methylbutyl)carbamoyl)pyridin-4-yl)amino)-2-methoxybenzoate]
IC50 (IRAK4 enzyme; TR-FRET (HTRF)): 23 nM | EC50 (TNFα; TNFα content): 315 nM

CC(C)(O)[C@H](F)CNC(=O)c1cnc(-c2ccc3cc(C#N)cnn23)cc1N[C@H]1C[C@H](COC(=O)NCC(F)F)C1 [Example 736, ((1R,3r)-3-((2-(3-cyano-pyrrolo[1,2-b]pyridazin-7-yl)-5-(((R)-2-fluoro-3-hydroxy-3-methylbutyl)carbamoyl)pyridin-4-yl)amino)cyclobutyl) methyl (2,2-difluoro-ethyl)carbamate]
IC50 (IRAK4 enzyme; TR-FRET (HTRF)): < 1 nM | EC50 (TNFα; TNFα content): 48 nM

CN(C)C(=O)OC[C@H]1C[C@H](Nc2cc(-c3ccc4cc(C#N)cnn34)ncc2C(=O)NC[C@@H](F)C(C)(C)O)C1 [Example 734, ((1R,3r)-3-((2-(3-cyanopyrrolo[1,2-b]pyridazin-7-yl)-5-(((R)-2-fluoro-3-hydroxy-3-methylbutyl)carbamoyl)pyridin-4-yl)amino)cyclo-butyl)methyldimethyl-carbamate]
IC50 (IRAK4 enzyme; TR-FRET (HTRF)): < 1 nM | EC50 (TNFα; TNFα content): 29 nM

CC(C)(O)[C@H](F)CNC(=O)c1cnc(-c2ccc3cc(C#N)cnn23)cc1NC1CC2(CCN2)C1 (stereo partly drawn) [Example 908, 4-(((4S,6r)-1-azaspiro[3.3]heptan-6-yl)amino)-6-(3-cyanopyrrolo[1,2-b]pyridazin-7-yl)-N-((R)-2-fluoro-3-hydroxy-3-methylbutyl)nicotinamide]
IC50 (IRAK4 enzyme; TR-FRET): 6 nM | EC50 (TNFα; TNFα by TR-FRET): 611 nM

COC(=O)NC[C@H]1C[C@H](Nc2cc(-c3ccc4cc(C#N)cnn34)ncc2C(=O)NC[C@@H](F)C(C)(C)O)C1 [Example 545, Methyl (((1R,3r)-3-((2-(3-cyanopyrrolo[1,2-b]pyridazin-7-yl)-5-(((R)-2-fluoro-3-hydroxy-3-methylbutyl)carbamoyl)pyridin-4-yl)amino)cyclobutyl)methyl)carbamate]
IC50 (IRAK4 enzyme; TR-FRET (HTRF)): < 1 nM | EC50 (TNFα; TNFα content): 5 nM
